In patent publication US6841549B1, “Condensed imidazole compounds and a therapeutic agent for diabetes mellitus” (Eisai Co., Ltd., priority 1999, dated 2005):
pIC50, pKi: −log10 of the molar value. Counter-ions that a name gives are not always drawn.

Key:
[1] = biological target: T1, Human adenosine A2b receptor (Homo sapiens, UniProt P29275); test: Inhibition of NECA-stimulated cAMP production in receptor-expressing CHOK1 cells; type: cell-based; conditions: CHOK1 cells over-expressing human A2b receptor, NECA 30 nM
T1 construct: expressed in transfected cells; host or cells: CHOK1 cells
T1 sequence (P29275 1-332): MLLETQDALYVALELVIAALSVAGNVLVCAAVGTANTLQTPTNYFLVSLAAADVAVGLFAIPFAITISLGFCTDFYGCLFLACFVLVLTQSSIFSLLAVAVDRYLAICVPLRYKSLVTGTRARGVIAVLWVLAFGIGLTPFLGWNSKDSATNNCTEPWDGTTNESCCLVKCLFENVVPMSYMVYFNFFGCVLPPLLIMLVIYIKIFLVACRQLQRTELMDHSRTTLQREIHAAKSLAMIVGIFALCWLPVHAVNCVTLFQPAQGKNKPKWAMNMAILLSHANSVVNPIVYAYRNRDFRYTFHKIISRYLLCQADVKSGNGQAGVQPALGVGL
Procedure: Human adenosine A2b receptor cDNA was over-expressed in CHOK1 cells. The cells were uniformly placed on a 24-well plate at a density of 1.5×10^5cells/well, incubated overnight and then used for the assays. Affinity of the test compound for the A2b receptor was evaluated by using, as an index, the rate of suppression of the amount of cAMP produced by stimulation of an adenosine agonist NECA (30 nM) in the presence of the test compound. Thus, the plate was washed twice with 2 ml/well of Krebs-Ringer-Bicarbonate buffer (KRB) (mM) (NaCl 118, KCl 4.8, KH2PO4 1.2, MgSO4 1.2, CaCl2 3.4, HEPES 10, NaHCO3 25, pH 7.4) and then pre-incubated (0.5 ml/well) for 30 minutes. Thereafter, a mixed solution containing 600 μM Ro-20-1724 (phosphodiesterase inhibitor), 180 nM NECA, and a test compound at a concentration 6-times higher than in the reaction solution was added in an amount of […]. After 15 minutes, the reaction was stopped by replacing the reaction solution by 0.1 N HCl (300 μl/well). Measurement of cAMP was carried out using an Amersham cAMP EIA Kit.
The rate of inhibition of NECA-stimulated cAMP production by the test compound was calculated using the following equation: Rate of Inhibition (%)=[1−{(cAMP amount in the presence of NECA and test compound-Basal cAMP amount)/(cAMP amount stimulated only by NECA−Basal cAMP amount)}]×100.
IC50 was calculated from the rate of inhibition.

[2] = test system: primary cultured rat hepatic cells; test: Inhibition of NECA-stimulated glucose production in primary cultured rat hepatic cells; type: cell-based; conditions: primary cultured Wistar rat hepatic cells, NECA 0.1, 1 hour; read-out: IC50 for inhibition of NECA-stimulated glucose release
Procedure: Hepatic cells were separated by a collagenase perfusion method from livers of male rats of Wistar strain and subjected to a primary culture in a William's Medium E containing 5% calf serum, 10^−6 M insulin and 10^−7 M dexamethasone. After 1 day, the hepatic cells were washed with a Krebs-Ringer Bicarbonate buffer (mM) (NaCl 118, KCl 4.8, KH2PO4 1.2, MgSO4 1.2, CaCl2 3.4, HEPES 10, NaHCO3 25) pH 7.4 (KRB) containing 10 mM HEPES and 0.1% bovine serum albumin and KRB was added thereto, then incubated at 37° C. After 30 minutes, NECA (N-ethylcarboxamide adenosine) (final concentration: […]) and a test compound were added thereto at the same time, the mixture was incubated for additional one hour, and the amount of glucose released into the incubation medium was measured.

[3] = test system: spontaneously diabetic mice (KK-Ay/Ta Jcl); test: Action on hyperglycemia in spontaneously diabetic mice (single administration); type: in vivo; conditions: male KK-Ay/Ta Jcl mice, 10 mg/kg oral, p < 0.01 vs. control (72.5 ± 3.7)
Procedure: Animals: Seven male KK-A^y/Ta Jcl mice for each group (purchased from Nippon Clair) Preparation and Administration of Test Compound: A test compound in a dose as shown in Table 1 was suspended in 0.5% aqueous methyl cellulose solution and was orally administered in a volume of 10 ml/kg. Collection of Blood Samples and Determination of Blood Sugar: Blood was collected from tail veins just before administration of the test compound and also 5 hours after the administration and blood sugar was determined. Method: Tail vein of a mouse was injured by a razor without anesthetization to bleed slightly. The blood (15 μl) was collected and immediately mixed with 135 μl of 0.6 M perchloric acid. Glucose in the supernatant separated by centrifugation (at 1500 g for10 minutes at 4° C. usingacooling centrifuge GS-6KR from Beckmann) was determined by Glucose CII Test Wako (Wako Pure Chemicals). The results are shown in terms of “(% ratio of blood sugar 5 hours after the administration to the blood sugar before the administration)±(standard error)”. The data were subjected to one-way layout analysis of variance and then subjected to multiple comparison of Dunnett type. Difference with p<0.05 was deemed significant.

adenosine A2a receptor = biological target: T2, adenosine A2a receptor (Homo sapiens, UniProt P29274); test: Adenosine A2a receptor binding assay (3H-CGS21680); conditions: 3H-CGS21680 binding, membrane over-expressing A2a receptor, Cheng-Prusoff; read-out: inhibition constant (Ki value)
T2 construct: purchased Receptor Biology Inc
Procedure: A membrane specimen prepared by over-expression of adenosine A2a receptor was purchased from Receptor Biology Inc., and used to carry out adenosine A2a receptor binding assays. The purchased membrane specimen was suspended at a concentration of 22.2 μg/ml inan incubation buffer (20 mM HEPES, 10 mm MgCl2 and 100 mM NaCl, pH 7.4). To 0.45 ml of this membrane specimen were added 0.25ml of tritium-labeled^3H-CGS21680 (500 nM; 30 Ci/mmol) and 0.025 ml of the test compound. The solution of the test compound was prepared by dissolving the compound at a concentration of 20 mM in DMSO and then successively diluting the solution 10-fold with the incubation buffer. […] Thereafter, the glass fiber filter was transferred to a vial bottle, a scintillator was added thereto, and the radioactivity on the filter was measured by a liquid scintillation counter. The rate of inhibition of (^3H-CGS21680) binding to the A2a receptor by the test compound was calculated using the following equation, and from this rate of inhibition, IC50 was calculated. […]
The total binding amount is ^3H-CGS21680 binding radioactivity in the absence of the test compound. The non-specific binding amount is ^3H-CGS21680 binding radioactivity in the presence of […] of RPIA. The binding amount in the presence of drug is ^3H-CGS21680 binding radioactivity in the presence of the test compound of various concentrations. […]

T2 sequence (P29274 whole entry): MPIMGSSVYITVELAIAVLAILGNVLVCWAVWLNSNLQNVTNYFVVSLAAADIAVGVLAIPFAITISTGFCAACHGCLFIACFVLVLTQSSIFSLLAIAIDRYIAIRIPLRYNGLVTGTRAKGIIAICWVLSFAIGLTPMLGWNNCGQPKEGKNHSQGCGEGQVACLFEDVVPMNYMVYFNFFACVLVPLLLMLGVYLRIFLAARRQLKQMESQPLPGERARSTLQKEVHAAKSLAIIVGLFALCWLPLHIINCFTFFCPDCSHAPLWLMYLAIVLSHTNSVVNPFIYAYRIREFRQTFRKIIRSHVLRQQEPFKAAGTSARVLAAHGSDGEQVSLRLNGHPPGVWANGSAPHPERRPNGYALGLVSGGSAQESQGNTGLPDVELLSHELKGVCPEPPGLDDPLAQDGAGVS

Structure (SMILES) | pIC50 [1] | pIC50 [2] | % ratio of blood sugar 5 hours after the administration to the blood sugar before the administration ± standard error [3] | pKi (adenosine A2a receptor)
Cl.Cn1cc(-n2c(-c3cccc(F)c3)nc3c(N)ncnc32)ccc1=O [Example 5, 5-[6-Amino-8-(3-fluorophenyl)-9H-9-purinyl]-1-methyl-1,2-dihydro-2-pyridinone hdrochloride] | 7.96 | 8.12 | 47.3 ± 7.2% | 8.49
C=CCn1c(-c2cccc(F)c2)nc2c(N)nc(C#CC3(O)CCC3)nc21 [Example 20, 1-{2-[9-Allyl-6-amino-8-(3-fIuorophenyl)-9H-2-purinyl]-1-ethynyl]}-1-cyclobutanol hydrochloride] |  | 8.08 |  | 8.02
